Results on 85 molecules are retold here after ChEMBL document CHEMBL1131120, “The frontier orbital phase angles: novel QSAR descriptors for benzene derivatives, applied to phenylalkylamine hallucinogens” (1998).

The species entered for this assay is Homo sapiens. Nature of the assay: Compound tested for hallucinogenic activity in humans was reported; Value reported in (A)= Mescaline units. The class given is functional.
Consider `COc1cc(CC(C)N)c(OC)c(OC)c1` (stereo not given), for which the Activity is on record as 4.

In the case of `COc1cc2c(cc1CC(C)N)OCO2` (stereo not given), the Activity amounted to 8.

In turn, `COc1cc(CC(C)N)cc(OC)c1Br` (stereo not given) showed an Activity of 43.

`COc1cc(CC(C)N)c(OC)cc1CCF` (stereo not given) came in with an Activity of 110.

In turn, `CCCCSc1c(OC)cc(CCN)cc1OC` returned an Activity of 3.

`C=CCOc1c(OC)cc(CC(C)N)cc1OC` (stereo not given) gave an Activity of 11.

`COCCSc1cc(OC)c(CCN)cc1OC` returned an Activity of 9.

In turn, `COc1cc(CC(C)N)c(SC)cc1C` (stereo not given) had an Activity of 4.

Regarding `COc1cc(CCN)c(OC)c2c1C1CCC2C1` (stereo not given), the Activity is reported as 22.

With `COc1cc(CCN)c(OC)cc1C`, the Activity is 8.

Molecule `CCc1cc(OC)c(CCN)cc1OC` came in with an Activity of 18.

`CCOc1cc(CCN)cc(OC)c1OCC` had an Activity of 1.3.

`COc1cc(CC(C)N)c(OC)c2c1CCC2` (stereo not given) displayed an Activity of 20.

`COc1cc(CCN)c(OC)cc1Cl` displayed an Activity of 10.

In the case of `COc1cc(CC(C)N)c(OC)c(OC)c1OC` (stereo not given), the Activity was determined as 6.

The molecule `COc1ccc(OC)c(OC)c1CC(C)N` (stereo not given) displayed an Activity of 10.

Regarding `COc1cc(CCN)cc(OC)c1OC(C)C`, the Activity was 5.

The molecule `CC(C)(N)Cc1ccc2c(c1)OCO2` showed an Activity of 1.5.

In turn, `CCSc1cc(CCN)cc(OC)c1OC` displayed an Activity of 4.

Consider `CCNC(C)Cc1ccc2c(c1)OCO2` (stereo not given), for which the Activity was 2.

With `COc1cc(CC(C)N)c(OC)c2c1OCO2` (stereo not given), the Activity worked out at 6.

As for `CCCSc1cc(OC)c(CCN)cc1OC`, the Activity is recorded as 15.

Molecule `COc1cc(CC(C)N)cc2c1OCO2` (stereo not given) had an Activity of 2.

`COc1cc(SCCF)c(OC)cc1CCN`: the Activity was determined as 29.

In the case of `CCOc1cc(CCN)cc(SC)c1OCC`, the Activity was found to be 2.

Molecule `CCOc1c(OC)cc(CCN)cc1SCC` returned an Activity of 2.

In turn, `C=C(C)COc1c(OC)cc(CCN)cc1OC` showed an Activity of 6.

Turning to `CCOc1cc(CCN)cc(OC)c1SCC`, the Activity worked out at 4.

Molecule `CCOc1cc(CCN)cc(OC)c1OC` displayed an Activity of 1.

As for `CCc1cc(OC)c(CC(C)N)cc1SC` (stereo not given), the Activity came to 15.

`COc1cc(CCN)c(OC)c(C)c1C`: the Activity was found to be 11.

With `COc1cc(SC)c(OC)cc1CCN`, the Activity was 4.

With `CCC(C)Sc1cc(OC)c(CCN)cc1OC` (stereo not given), the Activity was found to be 4.

Take `COc1cc(SC(C)(C)C)c(OC)cc1CCN`: the Activity is on record as 4.

The molecule `CC(Cc1ccc2c(c1)OCO2)NO` (stereo not given) gave an Activity of 2.3.

Turning to `CCC(C)Sc1cc(OC)c(CCNO)cc1OC` (stereo not given), the Activity worked out at 3.

In turn, `CCCSc1cc(OC)c(CCNO)cc1OC` showed an Activity of 15.

For the molecule `CCSc1cc(OC)c(CCNO)cc1OC`, the Activity was determined as 22.

Molecule `COc1c(CC(C)N)ccc2c1OCO2` (stereo not given) registered an Activity of 6.

Molecule `COc1cc(SC(C)C)c(OC)cc1CC(C)N` (stereo not given) displayed an Activity of 32.

`COc1cc(CCN)cc(OC)c1C` came in with an Activity of 4.

`CCCSc1c(OC)cc(CCN)cc1OC` displayed an Activity of 16.

Regarding `COc1cc(CC(C)N)cc(OC)c1OCc1ccccc1` (stereo not given), the Activity is 3.

In turn, `COc1cc(SCC2CC2)c(OC)cc1CCN` came in with an Activity of 7.

The molecule `CCOc1c(OC)cc(CC(C)N)cc1OC` (stereo not given) showed an Activity of 7.

On to `COc1cc(C2CC2N)c(OC)cc1C` (stereo not given), for which the Activity was found to be 17.

`COc1cc(CCN)cc(SC)c1OC` had an Activity of 4.

As for `CCC(Cc1ccc2c(c1)OCO2)NC` (stereo not given), the Activity amounted to 1.5.

The molecule `COc1cc(CCN)cc(OC)c1SC` showed an Activity of 10.

The molecule `COc1cc(CCN)c(OC)cc1Br` registered an Activity of 16.

`COc1cc(C)cc(OC)c1CC(C)N` (stereo not given) registered an Activity of 15.

For the molecule `COc1cc(CC(C)N)cc(OC)c1OC` (stereo not given), the Activity is recorded as 2.

`CCOc1c(OC)cc(CCN)cc1OC`: the Activity turned out to be 6.

The molecule `CCOc1c(OC)cc(CCN)cc1SC` showed an Activity of 4.

Take `COc1cc(CCN)c(OC)c2ccccc12`: the Activity amounted to 10.

For `COc1cc(C)c(SC)cc1CC(C)N` (stereo not given), the Activity was determined as 7.

The molecule `COc1cc(SC(C)C)c(OC)cc1CCN` registered an Activity of 21.

On to `COc1cc(CCN)c(OC)cc1I`, for which the Activity is recorded as 17.

For the molecule `COc1cc(OC)c(CC(C)N)cc1Br` (stereo not given), the Activity came out at 4.

For the molecule `CCCc1cc(OC)c(CCN)cc1OC`, the Activity was determined as 37.

Molecule `CCSc1cc(OC)c(CCN)cc1OC` returned an Activity of 16.

The molecule `COc1cc(CC(C)N)c(OC)c(C)c1C` (stereo not given) had an Activity of 12.

Molecule `CCSc1cc(OC)c(CC(C)N)cc1OC` (stereo not given) came in with an Activity of 50.

In the case of `CCSc1c(OC)cc(CCN)cc1OC`, the Activity is given as 12.

Consider `CCCOc1c(OC)cc(CCN)cc1OC`, for which the Activity is 7.

`COc1cc(CCN)c(OC)c2c1CCC2` came in with an Activity of 14.

The molecule `COc1cc(OC)c(CC(C)N)c(OC)c1` (stereo not given) registered an Activity of 10.

Take `CCCSc1cc(OC)c(CC(C)N)cc1OC` (stereo not given): the Activity was found to be 55.

Take `COc1cc(CCN)cc(OC)c1OCC1CC1`: the Activity came out at 4.

As for `CCOc1cc(CCN)cc(OC)c1SC`, the Activity is recorded as 4.

Regarding `COc1cc(SC)c(OC)cc1CC(C)N` (stereo not given), the Activity is 40.

The molecule `CCC(N)Cc1ccc2c(c1)OCO2` (stereo not given) had an Activity of 1.5.

Take `COc1cc(CC(C)N)c(OC)cc1I` (stereo not given): the Activity worked out at 133.

As to `COc1cc(CC(C)N)c(OC)cc1Cl` (stereo not given), the Activity turned out to be 133.

In the case of `CCc1cc(OC)c(CC(C)N)cc1OC` (stereo not given), the Activity was 75.

With `CCOc1cc(OC)c(CC(C)N)cc1OC` (stereo not given), the Activity was 9.

In turn, `COc1cc([N+](=O)[O-])c(OC)cc1CC(C)N` (stereo not given) yielded an Activity of 80.

In turn, `COc1cc(OC)c(OC)cc1CC(C)N` (stereo not given) yielded an Activity of 10.

Molecule `CCCc1cc(OC)c(CC(C)N)cc1OC` (stereo not given) displayed an Activity of 80.

Molecule `COc1ccc(OC)c(CC(C)N)c1` (stereo not given) yielded an Activity of 2.5.

Molecule `COc1cc(CC(C)N)c(OC)cc1Br` (stereo not given) [BROLAMFETAMINE] yielded an Activity of 150.

In turn, `COc1cc(CC(C)N)c(OC)cc1C` (stereo not given) [DOM] yielded an Activity of 50.

For the molecule `COc1cc(CCN)cc(OC)c1OC` [MESCALINE], the Activity came out at 1.

On to `COc1ccc(CC(C)N)cc1` (stereo not given) [PARA-METHOXYAMPHETAMINE], for which the Activity was 5.

In the case of `CC(N)Cc1ccc2c(c1)OCO2` (stereo not given) [TENAMFETAMINE], the Activity came out at 3.
